# Experimental data as given in patent US9408871B2, “Methods for inhibiting complement activation and uses thereof” (THE UNIVERSITY OF BRITISH COLUMBIA, priority 2013, dated 2016).
# Columns and labels:
# [1] = biological target: T1, C1-esterase inhibitor (C1-inh) (Homo sapiens, UniProt P05155); experiment: C1s-mediated cleavage of C4 in the presence of C1-inh (SDS-PAGE); assay type: biochemical; conditions: 10-500 μM, 2.5 nM C1-inh
# T1 sequence (P05155 23-500): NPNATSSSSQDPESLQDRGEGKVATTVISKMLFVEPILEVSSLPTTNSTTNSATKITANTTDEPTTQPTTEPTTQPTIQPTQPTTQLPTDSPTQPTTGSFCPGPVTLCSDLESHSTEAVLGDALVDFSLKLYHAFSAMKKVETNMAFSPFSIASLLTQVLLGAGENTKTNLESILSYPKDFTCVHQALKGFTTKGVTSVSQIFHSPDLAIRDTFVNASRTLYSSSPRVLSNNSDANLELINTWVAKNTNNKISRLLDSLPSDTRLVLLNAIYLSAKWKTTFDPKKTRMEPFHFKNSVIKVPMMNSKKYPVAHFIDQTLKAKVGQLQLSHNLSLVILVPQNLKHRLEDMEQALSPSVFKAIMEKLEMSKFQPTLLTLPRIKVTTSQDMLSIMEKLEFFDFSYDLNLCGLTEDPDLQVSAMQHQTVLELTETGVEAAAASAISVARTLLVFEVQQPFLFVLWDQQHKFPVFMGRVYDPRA
# Experimental: We tested whether polyP affects the inhibitory properties of C1-inh on C1s-mediated cleavage and activation of complement factor C4 and C2. SDS-PAGE followed by coomassie staining of gels was used to monitor cleavage of C4 by C1s in the presence/absence of C1-inh and/or polyP in a purified system.
# 2.5 nM C1s (reaction 1) or 2.5 nM C1-inh (reaction 2), and 300 μM polyP were incubated in 20 mM Hepes, 0.15 M NaCl, pH 7.5, 0.01% Tween buffer for 90 minutes at 37° C. 2.5 nM C1-inh (reaction 1) or 0.5 nM C1s (reaction 2) was added and incubated for 30 minutes at 37° C. 1.5 μM C4 was added and incubated for 5 minutes at 37° C. The reactions were quenched with 5× loading buffer and β-ME. Samples were taken and run on an SDS-PAGE 8% gel (FIG. 15B).
# Briefly, 2.5 nM C1s with 5-300 μM of polyP130 (reaction 1; FIG. 16A) or polyP1000 (reaction 2; FIG. 16B) were incubated in 20 mM Hepes, 0.15 M NaCl, pH 7.5, 0.01% Tween buffer for 90 minutes at 37° C. 2.5 nM C1s was added and incubated for 30 minutes at 37° C. 1.5 μM C4 was added and incubated for 5 minutes at 37° C. The reactions were quenched with 5× loading buffer and β-ME.
# Briefly, 2.5 nM C1s with 10-500 μM of polyP14, polyP60, polyP130, polyP1000 were incubated in 20 mM Hepes, 0.15 M NaCl, pH 7.5, 0.01% Tween buffer for 90 minutes at 37° C. 2.5 nM C1s was added and incubated for 30 minutes at 37° C. […]
# [2] = test system: terminal pathway (TP) of complement; experiment: serum-based terminal pathway (TP) hemolytic assay (2% NHS, C5b,6, chicken erythrocytes); assay type: cell-based, human; conditions: 100 μM (based on the monomeric form)
# Source text: Erythrocyte lysis assays were used to measure complement-mediated hemolytic activity. Erythrocyte (RBC) lysis assays as previously described^18,37 were used to measure complement activity. For alternative pathway assays and for total hemolytic activity assays, unsensitized rabbit erythrocytes were used. Chicken erythrocytes were used for the terminal pathway assays.
# Erythrocytes were washed three times in GVB with the reaction buffers as indicated, and counted using the Advia 120 Hematology System from Siemens (Siemens, Erlangen, Germany). Reactions in 300 μL were allowed to proceed for 30 min at 37° C., after which unlysed cells were pelleted by centrifugation at 600×g. Erythrocyte lysis, reflected by the released hemoglobin in the supernatant, was quantified by measuring the absorbance at 405 nm using the Mithras LB 940 microplate reader from Berthold Technologies (Bad Wildbad, Germany). Percent lysis was determined relative to the control of 100% lysis with H2O. For total hemolytic and terminal pathway (TP) assays, the concentrations of NHS and C5b,6 to initiate complement activation were established from pilot studies to obtain ˜70-80% erythrocyte lysis at 30 min.
# For serum-based terminal pathway (TP) hemolytic assays, components were diluted in GVB containing 10 mM EDTA (GVB-E), the latter added to prevent upstream complement activation and generation of endogenous C5b,6. 2% NHS was used as the source of C7, C8, and C9, and hemolysis of chicken erythrocytes (cRBC) (3.3×10^8 cells/mL) was initiated by addition of exogenous purified C5b,6, the concentration of which was determined from pilot studies to yield ˜70-80% lysis at 30 min. No C5b,6 activity was detected in the NHS prior to initiating the reaction. For some experiments, instead of NHS, purified terminal pathway complement components were used in the TP assays. In these assays, in a final volume of 300 uL GVB, lysis was achieved by the sequential addition of the following components: cRBC (3.3×10^8 cells/mL), C5b,6 (20 μM), C7 (15 nM), C8 (10 nM), and C9 (25 nM). The unlysed cell pellet was removed by centrifugation and lysis was measured immediately after the 30-minute reaction. A standard curve for the terminal pathway assay using serum as the source of complement (FIG. 2) was generated using a fixed serum concentration at 2%, and increasing concentrations of purified C5b,6 dose-dependently lysed chicken erythrocytes after 30 min at 37° C. […] of purified C5b,6 was therefore used to fix baseline lysis at ˜80% to allow assessment of the inhibitory effects of polyphosphate in serum.
# TP activity in NHS(2%), measured by lysis of cRBC, was initiated by adding a limiting amount of exogenous purified C5b,6 (250 pM) to achieve 70-80% lysis after 30 min. A molar excess of EDTA was used to prevent upstream activation of complement and generation of endogenous C5b,6. In the absence of C5b,6, there was no detectable complement-mediated cRBC lysis. P1 at concentrations ranging from 0.1 to 1000 μM, had no effect on complement-mediated hemolysis in NHS via the TP (FIG. 5A). By contrast, polyphosphate>1000 inhibited the TP in serum in a concentration-dependent manner, with an IC50 of ˜10 μM polyphosphate>1000 (dotted lines) (calculated based on monomeric phosphate).
effect of polyP size on C1-inh (C4 cleavage by C1s) [1],Structure (SMILES),effect on TP hemolytic activity at equivalent concentration [2]
had no effect on C1-inh,"O=P([O-])([O-])OP(=O)([O-])[O-].[Na+].[Na+].[Na+].[Na+] [P2, diphosphate (Na4P2O7)]",had no effect
had no effect on C1-inh,"O=P([O-])([O-])OP(=O)([O-])OP(=O)([O-])[O-].[Na+].[Na+].[Na+].[Na+].[Na+] [P3, triphosphate (Na5P3O10)]",had no effect
